Test results from patent publication US12378224B2 (Dong-A Socio Holdings Co., Ltd., priority 2016, dated 2025).
pIC50: −log10 of the molar value.

Target: human MER (528-end) (Homo sapiens (Human), UniProt Q12866)
Test: HTRF Kinase Activity Biochemical Assay (KinEASE-TK)
Conditions: 10 uM ATP
How it was run: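 Recombinant human MER (528-end) phosphorylated biotin-TK peptide substrate, 1 h at room temperature. Reaction stopped with detection buffer containing 0.375 nM Eu3+-cryptate anti-TK antibody and 0.062 uM streptavidin-XL665, 1 h further. Activity taken as HTRF ratio 665/620 nm ×10,000, 340 nm excitation.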

Chain of human MER (528-end) (Q12866 528-999 limits assumed): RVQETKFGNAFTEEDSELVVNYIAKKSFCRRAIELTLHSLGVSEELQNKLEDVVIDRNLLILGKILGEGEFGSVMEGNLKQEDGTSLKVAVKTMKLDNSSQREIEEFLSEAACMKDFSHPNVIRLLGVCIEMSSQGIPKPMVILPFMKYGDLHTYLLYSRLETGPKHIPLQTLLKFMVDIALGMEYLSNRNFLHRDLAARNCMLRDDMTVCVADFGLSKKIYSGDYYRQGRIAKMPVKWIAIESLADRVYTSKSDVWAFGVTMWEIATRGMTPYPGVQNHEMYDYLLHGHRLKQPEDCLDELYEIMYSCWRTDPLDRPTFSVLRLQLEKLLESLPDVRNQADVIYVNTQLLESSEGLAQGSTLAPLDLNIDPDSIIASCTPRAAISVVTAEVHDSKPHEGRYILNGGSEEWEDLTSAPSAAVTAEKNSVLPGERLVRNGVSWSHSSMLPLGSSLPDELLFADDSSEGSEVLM

Row | pIC50 | SMILES
1 | < 6.00 | Cn1cc(-c2cnc(N)c(C(=O)N[C@H]3CN(C(=O)c4ccc(-c5ccc(F)cc5Cl)cc4)C[C@H]3F)c2)cn1 [Example 682, 2-amino-N-((3S,4R)-1-(2′-chloro-4′-fluoro-[1,1′-biphenyl]-4-carbonyl)-4-fluoropyrrolidin-3-yl)-5-(1-methyl-1H-pyrazol-4-yl)nicotinamide]
2 | < 6.00 | Cc1cc(-c2cc(F)ccc2Cl)ccc1C(=O)N1CC[C@@H](NC(=O)c2cc(-c3cnn(C)c3)cnc2N)C1 [Example 691, (R)-2-amino-N-(1-(2′-chloro-5′-fluoro-3-methyl-[1,1′-biphenyl]-4-carbonyl)pyrrolidin-3-yl)-5-(1-methyl-1H-pyrazol-4-yl)nicotinamide]
3 | 7.00 to 8.00 | Cc1cc(C(=O)N2CC[C@@H](NC(=O)c3cc(-c4cnn(C)c4)cnc3N)C2)ccc1-c1cc(F)ccc1Cl [Example 692, (R)-2-amino-N-(1-(2′-chloro-5′-fluoro-2-methyl-[1,1′-biphenyl]-4-carbonyl)pyrrolidin-3-yl)-5-(1-methyl-1H-pyrazol-4-yl)nicotinamide]
4 | < 6.00 | Cn1cc(-c2cnc(N)c(C(=O)N[C@@H]3CCN(C(=O)c4ccc(-c5cc(F)ccc5Cl)cc4Cl)C3)c2)cn1 [Example 693, (R)-2-amino-N-(1-(2′,3-dichloro-5′-fluoro-[1,1′-biphenyl]-4-carbonyl)pyrrolidin-3-yl)-5-(1-methyl-1H-pyrazol-4-yl)nicotinamide]
5 | < 6.00 | Cn1cc(-c2cnc(N)c(C(=O)N[C@@H]3CCN(C(=O)c4ccc(-c5ccc(F)cc5Cl)cc4Cl)C3)c2)cn1 [Example 694, (R)-2-amino-N-(1-(2′,3-dichloro-4′-fluoro-[1,1′-biphenyl]-4-carbonyl)pyrrolidin-3-yl)-5-(1-methyl-1H-pyrazol-4-yl)nicotinamide]
6 | < 6.00 | Cn1cc(-c2cnc(N)c(C(=O)N[C@@H]3CCN(C(=O)c4ccc(F)cc4Cl)C3)c2)cn1 [Example 716, (R)-2-amino-N-(1-(2-chloro-4-fluorobenzoyl)pyrrolidin-3-yl)-5-(1-methyl-1H-pyrazol-4-yl)nicotinamide]
7 | 7.00 to 8.00 | Cn1cc(-c2cnc(N)c(C(=O)N[C@@H]3CCN(C(=O)c4ccc(-c5cccc(CN)c5)cc4)C3)c2)cn1 [Example 727, (R)-2-amino-N-(1-(3′-(aminomethyl)-[1,1′-biphenyl]-4-carbonyl)pyrrolidin-3-yl)-5-(1-methyl-1H-pyrazol-4-yl)nicotinamide]
8 | 6.00 to 7.00 | Cn1cc(-c2cnc(N)c(C(=O)N[C@@H]3CCN(C(=O)c4ccc(-c5ccccc5)cc4N)C3)c2)cn1 [Example 728, (R)-2-amino-N-(1-(3-amino-[1,1′-biphenyl]-4-carbonyl)pyrrolidin-3-yl)-5-(1-methyl-1H-pyrazol-4-yl)nicotinamide]
9 | < 6.00 | Cn1cc(-c2cnc(N)c(C(=O)N[C@@H]3CCN(C(=O)c4cccc(Br)c4)C3)c2)cn1 [Example 733, (R)-2-amino-N-(1-(3-bromobenzoyl)pyrrolidin-3-yl)-5-(1-methyl-1H-pyrazol-4-yl)nicotinamide]
10 | 6.00 to 7.00 | Nc1ncc(-c2ccccc2)cc1C(=O)N[C@@H]1CCN(C(=O)c2ccc(-c3ccc(F)cc3Cl)cc2)C1 [Example 775, (R)-2-amino-N-(1-(2′-chloro-4′-fluoro-[1,1′-biphenyl]-4-carbonyl)pyrrolidin-3-yl)-5-phenylnicotinamide]

Second part, the molecule before the results:

Row | SMILES | pIC50
11 | COC(=O)[C@H]1C[C@@H](NC(=O)c2cc(-c3cnn(C)c3)cnc2N)CN1C(=O)c1ccc(-c2ccccc2)cc1 [Example 683, methyl (2R,4R)-1-([1,1′-biphenyl]-4-carbonyl)-4-(2-amino-5-(1-methyl-1H-pyrazol-4-yl)nicotinamido)pyrrolidine-2-carboxylate] | 6.00 to 7.00
12 | COC(=O)[C@H]1C[C@@H](NC(=O)c2cc(-c3cnn(C)c3)cnc2N)CN1C(=O)c1cccc(-c2ccccc2)c1 [Example 684, Methyl (2R,4R)-1-([1,1′-biphenyl]-3-carbonyl)-4-(2-amino-5-(1-methyl-1H-pyrazol-4-yl)nicotinamido)pyrrolidine-2-carboxylate] | < 6.00
13 | COC(=O)[C@@H]1C[C@H](NC(=O)c2cc(-c3cnn(C)c3)cnc2N)CN1C(=O)c1ccc(-c2ccccc2)cc1 [Example 685, methyl (2S,4S)-1-([1,1′-biphenyl]-4-carbonyl)-4-(2-amino-5-(1-methyl-1H-pyrazol-4-yl)nicotinamido)pyrrolidine-2-carboxylate] | < 6.00
14 | COC(=O)[C@@H]1C[C@H](NC(=O)c2cc(-c3cnn(C)c3)cnc2N)CN1C(=O)c1cccc(-c2ccccc2)c1 [Example 686, methyl (2S,4S)-1-([1,1′-biphenyl]-3-carbonyl)-4-(2-amino-5-(1-methyl-1H-pyrazol-4-yl)nicotinamido)pyrrolidine-2-carboxylate] | < 6.00
15 | CCOC(=O)C1CN(C(=O)c2cccc(-c3ccccc3)c2)CC1NC(=O)c1cc(-c2cnn(C)c2)cnc1N (stereo not drawn) [Example 688, ethyl 1-([1,1′-biphenyl]-3-carbonyl)-4-(2-amino-5-(1-methyl-1H-pyrazol-4-yl)nicotinamido)pyrrolidine-3-carboxylate] | < 6.00
16 | Cn1cc(-c2cnc(N)c(C(=O)N[C@@H]3CCN(C(=O)[C@H]4C[C@@H]4c4ccccc4)C3)c2)cn1 [Example 705, 2-amino-5-(1-methyl-1H-pyrazol-4-yl)-N—((R)-1-((1S,2S)-2-phenylcyclopropane-1-carbonyl)pyrrolidin-3-yl)nicotinamide] | < 6.00
17 | Cn1cc(-c2cnc(N)c(C(=O)N[C@@H]3CCN(C(=O)c4ccc(-c5ccc(C#N)cc5)cc4)C3)c2)cn1 [Example 726, (R)-2-amino-N-(1-(4′-cyano-[1,1′-biphenyl]-4-carbonyl)pyrrolidin-3-yl)-5-(1-methyl-1H-pyrazol-4-yl)nicotinamide] | 6.00 to 7.00
18 | Cn1cc(-c2cnc(N)c(C(=O)N[C@@H]3CCN(C(=O)/C=C/c4ccc(-c5ccccc5)cc4)C3)c2)cn1 [Example 730, (R,E)-N-(1-(3-([1,1′-biphenyl]-4-yl)acryloyl)pyrrolidin-3-yl)-2-amino-5-(1-methyl-1H-pyrazol-4-yl)nicotinamide] | 6.00 to 7.00
19 | Cn1cc(-c2cnc(N)c(C(=O)N[C@@H]3CCN(C(=O)c4ccc(Oc5ccccc5)cc4)C3)c2)cn1 [Example 731, (R)-2-amino-5-(1-methyl-1H-pyrazol-4-yl)-N-(1-(4-phenoxybenzoyl)pyrrolidin-3-yl)nicotinamide] | 6.00 to 7.00
20 | Cn1cc(-c2cnc(N)c(C(=O)NC[C@H]3CCCN3C(=O)c3ccc(-c4ccccc4)cc3)c2)cn1 [Example 736, (R)—N-((1-([1,1′-biphenyl]-4-carbonyl)pyrrolidin-2-yl)methyl)-2-amino-5-(1-methyl-1H-pyrazol-4-yl)nicotinamide] | < 6.00
21 | Cn1cc(-c2cnc(N)c(C(=O)NC[C@@H]3CCN(C(=O)c4ccc(-c5ccccc5)cc4)C3)c2)cn1 [Example 738, (S)—N-((1-([1,1′-biphenyl]-4-carbonyl)pyrrolidin-3-yl)methyl)-2-amino-5-(1-methyl-1H-pyrazol-4-yl)nicotinamide] | < 6.00
22 | Cn1cc(-c2cnc(N)c(C(=O)NC[C@@H]3CCN(C(=O)c4cccc(-c5ccccc5)c4)C3)c2)cn1 [Example 739] | < 6.00
23 | Cn1cc(-c2cnc(N)c(C(=O)N[C@@H]3CCN(C(=O)c4ccc(-c5ccccc5)cc4)C3)n2)cn1 [Example 744, (R)—N-(1-([1,1′-biphenyl]-4-carbonyl)pyrrolidin-3-yl)-3-amino-6-(1-methyl-1H-pyrazol-4-yl)pyrazine-2-carboxamide] | 6.00 to 7.00
24 | CC(C)(c1ccc(-c2cnc(N)c(C(=O)N[C@@H]3CCN(C(=O)c4ccc(-c5ccccc5)cc4)C3)c2)cc1)N1CCN(S(=O)(=O)c2ccccc2[N+](=O)[O-])CC1 [Example 783, (R)—N-(1-([1,1′-biphenyl]-4-carbonyl)pyrrolidin-3-yl)-2-amino-5-(4-(2-(4-((2-nitrophenyl)sulfonyl)piperazin-1-yl)propan-2-yl)phenyl)nicotinamide] | 6.00 to 7.00
25 | Cn1cc(-c2cnc(N)c(C(=O)N[C@@H]3CCN(C(=O)c4ccc(-c5ccc(Oc6ccc(N)nc6)cc5)cc4)C3)c2)cn1 [Example 813, (R)-2-amino-N-(1-(4′-((6-aminopyridin-3-yl)oxy)-[1,1′-biphenyl]-4-carbonyl)pyrrolidin-3-yl)-5-(1-methyl-1H-pyrazol-4-yl)nicotinamide] | 6.00 to 7.00
26 | Cn1cc(-c2cnc(N)c(C(=O)N[C@@H]3CCN(C(=O)c4ccc(-c5ccc(Oc6nn[nH]n6)cc5)cc4)C3)c2)cn1 [Example 814, (R)—N-(1-(4′-((2H-tetrazol-5-yl)oxy)-[1,1′-biphenyl]-4-carbonyl)pyrrolidin-3-yl)-2-amino-5-(1-methyl-1H-pyrazol-4-yl)nicotinamide] | 6.00 to 7.00
27 | Cn1cc(-c2cnc(N)c(C(=O)N[C@@H]3CCN(C(=O)c4ccc(/C=C/c5ccncc5)cc4)C3)c2)cn1 [Example 824, (R,E)-2-amino-5-(1-methyl-1H-pyrazol-4-yl)—N-(1-(4-(2-(pyridin-4-yl)vinyl)benzoyl)pyrrolidin-3-yl)nicotinamide] | 6.00 to 7.00
28 | Cn1cc(-c2cnc(N)c(C(=O)N[C@@H]3CCN(C(=O)c4ccc(/C=C/c5ccccn5)cc4)C3)c2)cn1 [Example 825, (R,E)-2-amino-5-(1-methyl-1H-pyrazol-4-yl)—N-(1-(4-(2-(pyridin-2-yl)vinyl)benzoyl)pyrrolidin-3-yl)nicotinamide] | 6.00 to 7.00
29 | C/C(=C\c1ccc(C(=O)N2CC[C@@H](NC(=O)c3cc(-c4cnn(C)c4)cnc3N)C2)cc1)c1ccccc1 [Example 826, (R,E)-2-amino-5-(1-methyl-1H-pyrazol-4-yl)-N-(1-(4-(2-phenylprop-1-en-1-yl)benzoyl)pyrrolidin-3-yl)nicotinamide] | < 6.00
30 | Cn1cc(-c2cnc(N)c(C(=O)N[C@@H]3CCN(C(=O)c4ccc(/C=C/C5CCNCC5)cc4)C3)c2)cn1 [Example 827, (R,E)-2-amino-5-(1-methyl-1H-pyrazol-4-yl)-N-(1-(4-(2-(piperidin-4-yl)vinyl)benzoyl)pyrrolidin-3-yl)nicotinamide] | < 6.00
